This is an account of results in patent US5759836A, “Osteoarthritis-associated inducable isoform of nitric oxide synthetase” (priority 1995, dated 1998).

Bounds are passed on as bounds.

In this test the target is T1, COX-2 (Mus musculus, UniProt Q05769).
T1 construct: Cells were incubated with LPS (1 μg/ml) for 16 h to induce COX-2; endogenous in cells; host or cells: RAW 264.7 murine macrophages, LPS-induced
T1 sequence (Q05769 18-604): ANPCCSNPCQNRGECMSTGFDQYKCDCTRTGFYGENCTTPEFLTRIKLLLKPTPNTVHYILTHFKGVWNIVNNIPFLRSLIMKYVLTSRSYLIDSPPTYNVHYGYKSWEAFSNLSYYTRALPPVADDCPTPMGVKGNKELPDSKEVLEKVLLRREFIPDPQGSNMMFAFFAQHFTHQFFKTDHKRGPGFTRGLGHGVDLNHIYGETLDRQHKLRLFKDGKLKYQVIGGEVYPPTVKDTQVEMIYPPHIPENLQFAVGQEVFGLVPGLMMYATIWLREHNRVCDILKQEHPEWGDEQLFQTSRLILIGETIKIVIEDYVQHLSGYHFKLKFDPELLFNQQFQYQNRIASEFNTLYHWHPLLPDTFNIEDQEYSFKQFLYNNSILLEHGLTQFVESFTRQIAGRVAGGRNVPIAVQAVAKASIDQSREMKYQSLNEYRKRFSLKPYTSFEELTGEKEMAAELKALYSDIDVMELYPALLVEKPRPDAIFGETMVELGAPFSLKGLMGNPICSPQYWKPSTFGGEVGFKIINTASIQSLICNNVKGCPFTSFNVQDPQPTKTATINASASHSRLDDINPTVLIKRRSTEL
The format is cell-based, murine. The following applies: 3 mM.

`CC(=O)Oc1ccccc1C(=O)O` [Aspirin, aspirin]: the “% inhibition of COX-2 specific activity” value is > 75%.
